Source: ChEMBL document CHEMBL1201862, “PubChem BioAssay data set” (2004)
Activity calls are given as the source filed them.

What was measured:
[1] = HIV-1 Env-mediated cell fusion inhibitors, dose response, CCR5-tropic Env (AID 2279); format: functional
Beta-galactosidase = Beta-galactosidase (Escherichia coli, UniProt Q8VNN2); experiment: PubChem AID 485352; format: functional
[2] = molecular target: Type-1 angiotensin II receptor (Homo sapiens, UniProt P30556); experiment: AT1 receptor antagonists, dose response, selectivity assay for APJ receptor antagonist project, cell-based, uHTS hits (AID 463214); format: functional;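 further: antagonist potency against angiotensin II stimulated AT1 response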
Chain of Type-1 angiotensin II receptor (P30556 whole entry): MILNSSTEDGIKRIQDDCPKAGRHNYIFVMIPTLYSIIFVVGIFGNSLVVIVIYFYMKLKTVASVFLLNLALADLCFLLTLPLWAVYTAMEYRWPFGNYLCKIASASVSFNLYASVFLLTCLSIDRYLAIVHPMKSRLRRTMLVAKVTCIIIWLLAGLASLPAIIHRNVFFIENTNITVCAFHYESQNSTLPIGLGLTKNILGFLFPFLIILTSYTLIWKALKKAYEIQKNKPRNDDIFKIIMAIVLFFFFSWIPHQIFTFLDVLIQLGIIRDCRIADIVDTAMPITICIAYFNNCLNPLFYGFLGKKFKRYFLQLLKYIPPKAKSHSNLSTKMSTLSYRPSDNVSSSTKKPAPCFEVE

[3] = MC4R antagonists, dose response, counter-screen for LGR2 antagonist project, cell-based, plate reader, cherry pick (AID 743444); format: functional;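 further: transfected HEK 293 cells stimulated with alpha-MSH peptide; potency of inhibitors of the alpha-MSH evoked signal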
[4] = LGR2 antagonists, dose response, cell-based, HEK293, CRE-luciferase reporter, cherry pick, set 2 (AID 743343); format: functional;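 further: transfected cells were stimulated with diluted bursicon conditioned medium after compound addition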
[5] = molecular target: Luciferin 4-monooxygenase (Photuris pensylvanica, UniProt Q27757); experiment: firefly luciferase enzyme inhibitors, dose response, counter-screen for HSF-1 reporter inhibitor project, biochemical, Cell Titer Glo, luminescence, cherry-picks (AID 588847)
Chain of Luciferin 4-monooxygenase (Q27757 whole entry): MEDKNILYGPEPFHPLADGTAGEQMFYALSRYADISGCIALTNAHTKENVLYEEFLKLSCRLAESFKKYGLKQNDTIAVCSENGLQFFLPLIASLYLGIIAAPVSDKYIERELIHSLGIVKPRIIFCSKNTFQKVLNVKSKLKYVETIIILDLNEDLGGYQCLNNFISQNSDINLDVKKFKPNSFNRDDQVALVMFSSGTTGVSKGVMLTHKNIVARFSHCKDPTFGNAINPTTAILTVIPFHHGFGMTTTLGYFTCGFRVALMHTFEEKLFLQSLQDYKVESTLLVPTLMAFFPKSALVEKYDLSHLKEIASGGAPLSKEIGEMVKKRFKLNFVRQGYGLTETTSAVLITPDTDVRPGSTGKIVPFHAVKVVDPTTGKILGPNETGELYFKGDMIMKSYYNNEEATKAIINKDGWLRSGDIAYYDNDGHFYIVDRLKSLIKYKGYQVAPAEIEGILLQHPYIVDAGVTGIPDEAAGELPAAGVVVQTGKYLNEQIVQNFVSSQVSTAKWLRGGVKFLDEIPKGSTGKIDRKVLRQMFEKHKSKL

Vero = experiment: cells; format: functional; conditions: Chlorocebus sabaeus
Paired box protein Pax-8 = Paired box protein Pax-8 (Homo sapiens, UniProt Q06710); experiment: inhibitors of PAX8-driven TPO luciferase reporter, dose response, RMG-I cells, cherry-pick (AID 687027); format: functional, cell-based;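 further: luciferase reporter driven by Pax8 target thyroperoxidase promoter measured by SteadyGlo luminescence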
Chain of Paired box protein Pax-8 (Q06710 whole entry): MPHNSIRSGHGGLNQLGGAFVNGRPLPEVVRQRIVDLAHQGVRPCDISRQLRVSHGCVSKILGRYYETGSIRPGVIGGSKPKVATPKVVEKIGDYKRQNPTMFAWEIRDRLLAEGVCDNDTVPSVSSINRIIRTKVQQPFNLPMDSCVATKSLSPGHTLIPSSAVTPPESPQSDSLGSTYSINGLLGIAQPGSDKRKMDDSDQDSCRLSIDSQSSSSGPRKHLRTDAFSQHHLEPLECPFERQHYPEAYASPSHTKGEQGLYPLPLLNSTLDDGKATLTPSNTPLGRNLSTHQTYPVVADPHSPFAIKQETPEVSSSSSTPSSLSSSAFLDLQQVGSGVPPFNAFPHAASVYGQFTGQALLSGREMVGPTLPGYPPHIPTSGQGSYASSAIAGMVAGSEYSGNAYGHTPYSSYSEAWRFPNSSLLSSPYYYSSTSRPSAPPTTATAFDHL

[6] = Counterscreen for AddAB inhibitors: absorbance-based bacterial cell-based high throughput dose response assay for inhibitors of bacterial viability. [Related pubchem assays (depositor defined):AID435030, AID449728, AID449731, AID488942, AID488955, AID488956]; format: functional
[7] = HepG2 cell cytotoxicity, dose response, cytotoxicity control, plate reader, cherry-pick, antagonist series (AID 743416); format: functional, cell-based
[8] = non-specific cell cytotoxicity, dose response, cytotoxicity control for PAX8 inhibitor project, plate reader, dry powder samples (AID 743021); format: functional, cell-based
Exodeoxyribonuclease V = Exodeoxyribonuclease V (Escherichia coli (strain K12), UniProt P04993+P07648+P08394); experiment: E. coli RecBCD inhibitors, dose response, counter-screen for AddAB inhibitor project, absorbance, V66 E. coli, mutant T4 phage (AID 492957); format: functional, cell-based, Escherichia coli str. K-12 substr. MG1655
Chain of Exodeoxyribonuclease V (P04993 whole entry): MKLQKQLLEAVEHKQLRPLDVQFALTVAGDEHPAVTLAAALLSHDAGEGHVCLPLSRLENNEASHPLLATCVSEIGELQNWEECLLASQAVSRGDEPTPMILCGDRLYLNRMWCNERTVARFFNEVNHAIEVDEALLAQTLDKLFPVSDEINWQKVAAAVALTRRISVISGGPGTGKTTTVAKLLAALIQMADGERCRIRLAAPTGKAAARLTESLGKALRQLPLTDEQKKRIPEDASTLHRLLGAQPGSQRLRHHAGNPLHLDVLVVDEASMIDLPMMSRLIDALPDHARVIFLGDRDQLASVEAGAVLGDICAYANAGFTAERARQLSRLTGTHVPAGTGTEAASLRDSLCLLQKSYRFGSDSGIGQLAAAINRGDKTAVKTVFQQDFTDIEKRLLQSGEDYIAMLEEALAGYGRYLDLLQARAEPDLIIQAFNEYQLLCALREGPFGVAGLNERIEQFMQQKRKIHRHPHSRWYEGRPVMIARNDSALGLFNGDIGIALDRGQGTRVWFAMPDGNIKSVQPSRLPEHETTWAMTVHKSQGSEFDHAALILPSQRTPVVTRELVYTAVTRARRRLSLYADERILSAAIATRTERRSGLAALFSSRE
Chain of Exodeoxyribonuclease V (P07648 whole entry): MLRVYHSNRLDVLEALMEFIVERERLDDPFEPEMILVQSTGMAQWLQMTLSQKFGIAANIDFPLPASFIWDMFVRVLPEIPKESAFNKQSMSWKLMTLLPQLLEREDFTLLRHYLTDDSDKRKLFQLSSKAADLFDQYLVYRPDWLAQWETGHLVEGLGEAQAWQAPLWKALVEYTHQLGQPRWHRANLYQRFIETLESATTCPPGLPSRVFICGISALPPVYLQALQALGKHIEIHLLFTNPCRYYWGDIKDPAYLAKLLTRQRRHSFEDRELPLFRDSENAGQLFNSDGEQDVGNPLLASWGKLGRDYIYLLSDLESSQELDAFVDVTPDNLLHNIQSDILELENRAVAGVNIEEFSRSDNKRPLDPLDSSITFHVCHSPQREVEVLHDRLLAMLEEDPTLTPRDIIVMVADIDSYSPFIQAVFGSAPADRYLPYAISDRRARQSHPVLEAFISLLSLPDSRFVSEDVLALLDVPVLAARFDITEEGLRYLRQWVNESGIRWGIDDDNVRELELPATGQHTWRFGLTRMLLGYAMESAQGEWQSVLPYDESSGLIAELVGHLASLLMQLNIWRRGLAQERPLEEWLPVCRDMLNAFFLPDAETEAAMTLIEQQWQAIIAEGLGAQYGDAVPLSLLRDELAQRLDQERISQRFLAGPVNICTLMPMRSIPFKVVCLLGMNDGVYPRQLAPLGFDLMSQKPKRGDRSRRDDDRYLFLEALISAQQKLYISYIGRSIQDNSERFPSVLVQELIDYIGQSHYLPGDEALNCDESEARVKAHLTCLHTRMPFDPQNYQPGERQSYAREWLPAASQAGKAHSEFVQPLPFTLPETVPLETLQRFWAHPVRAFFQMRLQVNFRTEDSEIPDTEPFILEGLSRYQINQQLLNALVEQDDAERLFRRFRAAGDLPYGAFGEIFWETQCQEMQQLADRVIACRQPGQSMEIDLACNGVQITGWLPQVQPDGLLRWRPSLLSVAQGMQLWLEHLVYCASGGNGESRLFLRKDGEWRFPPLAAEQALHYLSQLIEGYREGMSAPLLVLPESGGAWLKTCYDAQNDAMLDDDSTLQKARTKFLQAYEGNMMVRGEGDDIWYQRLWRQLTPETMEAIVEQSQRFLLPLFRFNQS
Chain of Exodeoxyribonuclease V (P08394 whole entry): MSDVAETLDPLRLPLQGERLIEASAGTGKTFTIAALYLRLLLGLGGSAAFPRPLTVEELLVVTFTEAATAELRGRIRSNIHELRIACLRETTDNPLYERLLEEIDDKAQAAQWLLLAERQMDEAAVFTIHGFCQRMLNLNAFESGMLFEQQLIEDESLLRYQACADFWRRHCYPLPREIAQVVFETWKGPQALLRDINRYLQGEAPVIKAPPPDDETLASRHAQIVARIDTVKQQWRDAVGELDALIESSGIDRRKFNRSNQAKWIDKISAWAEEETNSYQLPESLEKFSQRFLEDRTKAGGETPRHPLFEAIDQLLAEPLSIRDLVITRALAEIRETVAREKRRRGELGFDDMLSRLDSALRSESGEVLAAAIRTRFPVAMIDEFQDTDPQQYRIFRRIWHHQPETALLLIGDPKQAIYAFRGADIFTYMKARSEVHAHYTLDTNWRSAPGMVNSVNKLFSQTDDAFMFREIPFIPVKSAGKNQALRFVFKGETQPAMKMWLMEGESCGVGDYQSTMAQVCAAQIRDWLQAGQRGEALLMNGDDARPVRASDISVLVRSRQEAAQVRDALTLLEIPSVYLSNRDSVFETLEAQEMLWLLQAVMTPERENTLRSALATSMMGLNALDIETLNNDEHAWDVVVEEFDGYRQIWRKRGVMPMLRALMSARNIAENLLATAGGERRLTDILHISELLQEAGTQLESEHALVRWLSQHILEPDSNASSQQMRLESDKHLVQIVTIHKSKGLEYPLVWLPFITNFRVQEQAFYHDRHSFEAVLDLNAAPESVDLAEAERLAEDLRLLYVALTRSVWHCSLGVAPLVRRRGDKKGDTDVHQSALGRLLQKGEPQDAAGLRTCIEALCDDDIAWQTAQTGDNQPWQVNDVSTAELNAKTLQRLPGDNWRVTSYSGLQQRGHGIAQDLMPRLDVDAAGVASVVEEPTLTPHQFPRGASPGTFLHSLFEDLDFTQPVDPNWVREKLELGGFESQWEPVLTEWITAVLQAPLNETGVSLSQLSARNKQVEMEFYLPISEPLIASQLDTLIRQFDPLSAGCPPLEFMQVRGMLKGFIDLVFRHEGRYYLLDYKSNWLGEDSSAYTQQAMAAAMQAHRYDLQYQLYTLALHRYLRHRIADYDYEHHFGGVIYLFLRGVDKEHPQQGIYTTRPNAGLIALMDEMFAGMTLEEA

[9] = HEK293 cell cytotoxicity, dose response, cytotoxicity control, plate reader, cherry-picked samples (AID 743446); format: functional, cell-based
[10] = molecular target: T1, Heat shock factor protein 1 (Mus musculus, UniProt P38532); experiment: inhibition of MG132-induced HSE-luciferase signal, confirmation, cell-based, NIH3T3, luminescence, dose retest (AID 2382); format: functional;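 further: NIH3T3 fibroblasts with HSF1-driven luciferase reporter stressed by proteasome inhibitor MG132; luminescence from HSF1-driven luciferase expression after 8 hours of MG132 stress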
T1 sequence (P38532 whole entry): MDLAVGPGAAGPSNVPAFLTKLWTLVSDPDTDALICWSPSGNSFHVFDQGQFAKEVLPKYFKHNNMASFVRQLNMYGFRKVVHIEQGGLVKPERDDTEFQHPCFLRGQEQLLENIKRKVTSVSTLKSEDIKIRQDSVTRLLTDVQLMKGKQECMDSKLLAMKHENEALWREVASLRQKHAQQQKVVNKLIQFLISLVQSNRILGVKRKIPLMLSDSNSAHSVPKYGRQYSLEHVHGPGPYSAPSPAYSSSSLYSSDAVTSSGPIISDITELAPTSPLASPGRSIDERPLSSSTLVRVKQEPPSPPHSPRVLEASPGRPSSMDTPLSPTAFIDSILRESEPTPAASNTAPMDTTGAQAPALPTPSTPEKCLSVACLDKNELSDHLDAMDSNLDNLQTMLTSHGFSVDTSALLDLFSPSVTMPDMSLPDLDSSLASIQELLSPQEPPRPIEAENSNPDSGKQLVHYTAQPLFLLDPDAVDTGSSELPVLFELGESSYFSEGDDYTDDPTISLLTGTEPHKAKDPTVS

[11] = A549 cell cytotoxicity, dose response, cytotoxicity control, plate reader, cherry-pick, antagonist series (AID 743412); format: functional, cell-based
[12] = cytotoxicity in HEK-293T cells, dose response, cytotoxicity control for TCR NF-kB inhibitor project, luminescence, T-cell screen hits (AID 489026); format: functional, cell-based;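 further: cells exposed to compound about 14 hours before the viability readout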
A-375 = experiment: A375 melanoma cell viability reduction, dose response, counter-screen for MITF modulator project, cherry-pick samples, set 2 (AID 540335); format: functional, cell-based; conditions: Homo sapiens
[13] = inhibitors of intracellular T. cruzi replication, confirmation, NIH3T3 host cells, beta-gal luminescence (AID 2044); format: functional, cell-based;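 further: intracellular parasites grown in NIH/3T3 mouse fibroblasts as host cells; luminescent beta-galactosidase reporter signal from transgenic T. cruzi replicating inside host cells; inhibitors lower the luminescence signal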
[14] = cytotoxicity toward NIH3T3 fibroblasts, dose response, counter-screen, cell-based, ATP luminescence, mouse fibroblasts (AID 2010); format: functional;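 further: cells exposed to compound for about 90 hours before reading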
[15] = molecular target: T2, Calpain-2 catalytic subunit (Sus scrofa, UniProt P43367); experiment: pig calpain II inhibitor potency, dose response, biochemical, fluorogenic peptide substrate (AID 1420); format: functional
T2 sequence (P43367 whole entry): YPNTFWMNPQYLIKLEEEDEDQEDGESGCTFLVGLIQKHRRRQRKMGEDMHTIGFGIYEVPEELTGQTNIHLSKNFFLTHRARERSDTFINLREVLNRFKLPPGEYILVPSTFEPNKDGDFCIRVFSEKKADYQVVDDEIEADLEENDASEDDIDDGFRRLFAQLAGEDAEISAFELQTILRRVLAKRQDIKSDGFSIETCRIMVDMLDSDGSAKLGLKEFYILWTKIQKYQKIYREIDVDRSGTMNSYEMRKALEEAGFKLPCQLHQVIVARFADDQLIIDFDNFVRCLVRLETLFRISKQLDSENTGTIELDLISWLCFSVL

INS1 = experiment: beta cell apoptosis inhibitors, cytokine rescue, dose response, luminescence, retest (AID 449756); format: functional, cell-based; conditions: Rattus norvegicus;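 further: cell death triggered by IL-1 beta plus TNF-alpha plus IFN-gamma mixture; protective hits raise ATP signal compared with cytokine alone wells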
[16] = molecular target: T3, Histone-lysine N-methyltransferase NSD2 (Homo sapiens, UniProt O96028); format: biochemical
T3 sequence (O96028 whole entry): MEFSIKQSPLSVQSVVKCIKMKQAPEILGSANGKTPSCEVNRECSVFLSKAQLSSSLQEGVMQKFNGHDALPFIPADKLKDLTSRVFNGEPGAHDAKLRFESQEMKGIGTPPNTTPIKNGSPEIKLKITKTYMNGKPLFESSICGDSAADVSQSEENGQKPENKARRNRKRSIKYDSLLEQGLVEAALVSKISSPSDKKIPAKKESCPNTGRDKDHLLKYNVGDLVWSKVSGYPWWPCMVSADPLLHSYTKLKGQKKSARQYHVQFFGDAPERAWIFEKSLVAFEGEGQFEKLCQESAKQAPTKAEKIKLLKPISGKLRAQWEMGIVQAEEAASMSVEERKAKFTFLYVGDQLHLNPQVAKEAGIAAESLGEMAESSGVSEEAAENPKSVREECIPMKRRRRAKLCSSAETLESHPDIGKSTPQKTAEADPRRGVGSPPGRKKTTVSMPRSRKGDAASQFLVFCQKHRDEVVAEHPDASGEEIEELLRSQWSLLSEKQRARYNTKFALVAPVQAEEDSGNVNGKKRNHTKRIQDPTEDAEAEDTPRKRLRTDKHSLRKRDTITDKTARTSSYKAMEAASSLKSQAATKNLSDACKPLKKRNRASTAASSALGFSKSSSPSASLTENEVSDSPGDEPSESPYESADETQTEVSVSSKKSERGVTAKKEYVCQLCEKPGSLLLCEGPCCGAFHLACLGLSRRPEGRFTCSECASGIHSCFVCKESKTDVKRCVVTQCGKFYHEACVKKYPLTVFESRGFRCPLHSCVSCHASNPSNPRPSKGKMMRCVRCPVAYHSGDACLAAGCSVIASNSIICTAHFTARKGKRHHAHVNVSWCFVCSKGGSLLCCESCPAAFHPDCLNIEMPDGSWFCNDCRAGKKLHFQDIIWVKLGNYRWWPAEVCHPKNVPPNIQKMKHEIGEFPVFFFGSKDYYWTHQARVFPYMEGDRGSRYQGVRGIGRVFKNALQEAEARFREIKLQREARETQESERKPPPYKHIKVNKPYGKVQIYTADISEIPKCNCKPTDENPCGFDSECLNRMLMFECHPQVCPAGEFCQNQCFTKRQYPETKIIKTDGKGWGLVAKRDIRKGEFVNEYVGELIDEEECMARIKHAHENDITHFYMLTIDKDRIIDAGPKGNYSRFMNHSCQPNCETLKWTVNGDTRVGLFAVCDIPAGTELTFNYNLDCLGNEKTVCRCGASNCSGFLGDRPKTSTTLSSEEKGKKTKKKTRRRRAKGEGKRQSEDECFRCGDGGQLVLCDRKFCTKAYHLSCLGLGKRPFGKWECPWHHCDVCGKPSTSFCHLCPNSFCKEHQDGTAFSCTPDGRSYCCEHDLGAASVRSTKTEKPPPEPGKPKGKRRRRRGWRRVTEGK

[17] = molecular target: T4, Apoptotic protease-activating factor 1 (Homo sapiens, UniProt O14727); format: functional
T4 sequence (O14727 whole entry): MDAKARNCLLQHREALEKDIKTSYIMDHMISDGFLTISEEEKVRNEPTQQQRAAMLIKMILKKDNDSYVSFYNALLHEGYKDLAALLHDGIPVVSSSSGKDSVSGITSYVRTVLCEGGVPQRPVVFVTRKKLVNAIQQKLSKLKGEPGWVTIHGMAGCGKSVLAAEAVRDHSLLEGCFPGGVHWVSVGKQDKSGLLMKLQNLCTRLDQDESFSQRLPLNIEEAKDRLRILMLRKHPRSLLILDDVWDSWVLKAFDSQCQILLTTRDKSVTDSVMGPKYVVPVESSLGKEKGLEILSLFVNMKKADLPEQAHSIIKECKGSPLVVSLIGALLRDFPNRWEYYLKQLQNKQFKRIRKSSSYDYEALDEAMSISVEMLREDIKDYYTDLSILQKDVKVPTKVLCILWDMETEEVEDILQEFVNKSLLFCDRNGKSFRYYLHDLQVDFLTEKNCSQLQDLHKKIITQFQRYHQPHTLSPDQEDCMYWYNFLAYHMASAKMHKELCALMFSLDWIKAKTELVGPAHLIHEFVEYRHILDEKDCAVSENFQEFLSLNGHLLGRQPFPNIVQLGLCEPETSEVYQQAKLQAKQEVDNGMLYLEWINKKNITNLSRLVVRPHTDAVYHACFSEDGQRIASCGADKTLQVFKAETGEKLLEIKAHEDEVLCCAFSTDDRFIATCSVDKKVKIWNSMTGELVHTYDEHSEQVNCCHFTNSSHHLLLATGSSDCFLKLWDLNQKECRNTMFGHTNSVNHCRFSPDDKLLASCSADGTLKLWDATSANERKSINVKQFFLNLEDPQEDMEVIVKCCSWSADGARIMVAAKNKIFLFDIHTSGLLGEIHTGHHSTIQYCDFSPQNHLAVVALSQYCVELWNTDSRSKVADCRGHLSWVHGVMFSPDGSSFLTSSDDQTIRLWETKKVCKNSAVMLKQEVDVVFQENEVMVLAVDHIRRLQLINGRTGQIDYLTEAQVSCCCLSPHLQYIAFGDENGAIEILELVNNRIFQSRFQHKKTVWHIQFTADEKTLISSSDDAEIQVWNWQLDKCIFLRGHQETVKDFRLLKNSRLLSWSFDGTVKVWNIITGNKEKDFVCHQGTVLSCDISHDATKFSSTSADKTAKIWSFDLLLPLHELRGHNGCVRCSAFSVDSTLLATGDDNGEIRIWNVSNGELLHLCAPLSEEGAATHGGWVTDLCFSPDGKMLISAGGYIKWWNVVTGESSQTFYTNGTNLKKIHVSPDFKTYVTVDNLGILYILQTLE

[18] = molecular target: Microphthalmia-associated transcription factor (Homo sapiens, UniProt O75030); experiment: TRPM1 promoter luciferase signal decrease, dose response, MITF inhibitor project, cell-based, SK-MEL-5, cherry-picked, set 3 (AID 493073); format: functional
Chain of Microphthalmia-associated transcription factor (O75030 whole entry): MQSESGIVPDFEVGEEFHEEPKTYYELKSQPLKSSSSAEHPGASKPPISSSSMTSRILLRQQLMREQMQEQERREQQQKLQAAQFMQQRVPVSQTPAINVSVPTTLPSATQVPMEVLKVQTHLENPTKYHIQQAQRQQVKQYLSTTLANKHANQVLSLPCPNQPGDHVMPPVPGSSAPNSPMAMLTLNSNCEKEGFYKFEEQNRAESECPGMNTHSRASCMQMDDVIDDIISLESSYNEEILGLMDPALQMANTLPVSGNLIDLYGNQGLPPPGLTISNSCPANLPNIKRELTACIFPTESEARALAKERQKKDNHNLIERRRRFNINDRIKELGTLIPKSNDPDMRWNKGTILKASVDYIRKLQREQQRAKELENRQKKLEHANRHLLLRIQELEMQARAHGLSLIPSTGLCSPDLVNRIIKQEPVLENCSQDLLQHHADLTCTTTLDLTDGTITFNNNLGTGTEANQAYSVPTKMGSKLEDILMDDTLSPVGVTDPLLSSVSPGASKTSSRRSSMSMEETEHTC

[19] = Luminescence-based dose response cell-based high throughput screening assay for cytotoxic compounds using the IEC-6 intestinal epithelial cell line. [Related pubchem assays: 1858 (Summary AID.), 1825 (Counterscreen.), 1907 (Confirmation screen.)]; format: functional

For `O=C(O)c1ccccc1N=Nc1c(O)[nH]c2ccc([N+](=O)[O-])cc12`, which IC50 [1] is on record?
The IC50 was 10.1 µM (active).

And the EC50 (Beta-galactosidase)?
Its EC50 is > 40 µM (inactive).

And the IC50 [2]?
Its IC50 is > 40 µM (not active).

Which AC50 [3] does the source give for `C(=N\Nc1nc2ccccc2s1)/c1ccccn1` here?
Its AC50 is 0.229 µM (active).

What about the AC50 [4] of the same molecule?
The AC50 was 0.148 µM (active).

What about the AC50 [5] of the same molecule?
Its AC50 is 0.836 µM (active).

What about the CC50 (Vero) of the same molecule?
The CC50 was 2.61 µM (active).

And the AC50 (Paired box protein Pax-8)?
Its AC50 is 3.32 µM (active).

And the IC50 [6]?
The IC50 was > 119 µM (inactive).

And the AC50 [7]?
Its AC50 is 2.06 µM (active).

What about the AC50 [8] of the same molecule?
The AC50 was 9.34 µM (active).

And the IC50 (Exodeoxyribonuclease V)?
Its IC50 is > 119 µM (inactive).

And the AC50 [9]?
The AC50 was 3.72 µM (active).

And the EC50 [10]?
Its EC50 is < 0.16 µM (active).

What about the AC50 [11] of the same molecule?
Its AC50 is 2.02 µM (active).

What about the IC50 [12] of the same molecule?
The IC50 was > 80 µM (inactive).

For `CCN(CC)CCCNC1=C(Cl)C(=O)c2ccccc2C1=O`, which AC50 (A-375) is on record?
Its AC50 is 14.8 µM (active).

And the EC50 [13]?
Its EC50 is 0.987 µM (active).

What about the EC50 [14] of the same molecule?
The EC50 was 2.26 µM (active).

And the IC50 [15]?
Its IC50 is 9.5 µM (not active).

And the AC50 (INS1)?
The AC50 was 2.46 µM (active).

What about the AC50 [16] of the same molecule?
The AC50 was 4.69 µM (active).

What about the IC50 [17] of the same molecule?
Its IC50 is 11.7 µM (active).

What about the AC50 [18] of the same molecule?
The AC50 was 1.78 µM (active).

And the IC50 [19]?
Its IC50 is 1.8 µM (active).
